| SMILES | melting point [°C] |
| --- | --- |
| Fc1ccc2nccc(Cl)c2c1 | 71 to 74 |
| CCOCc1nc2c(N)nc3c(c2n1CC1(O)CCCC1)CCCC3 | 171 to 173 |
| O=C1CCCN1CCCN=c1sc2ccccc2s1 | 101 to 104 |
| CCOC(=O)C1=C(C)NC(CO)=C(C(=O)OCC)C1c1cccs1 (stereo not given) | 125 to 126 |
| CNC(=O)Oc1cccc(C2CCCN2CCN2C(=O)c3ccccc3C2=O)c1 (stereo not given) | 96 to 98 |
| C[C@@H]1[C@H](c2ccccc2)[C@]1(NS(=O)(=O)c1ccc(-c2cc(C(C)(F)F)on2)s1)C(=O)O | 177 to 178 |
| COc1cc(Nc2nccc(-c3cccc4ccccc34)n2)cc(OC)c1OC | 130 to 133 |
| CN(CCOc1ccc(CC(C(=O)O)S(=O)(=O)c2ccccc2)cc1)c1nc2ccccc2o1 (stereo not given) | 193 to 196 |
| CCCCCCCCCCC(O)Cn1ccnc1-c1ccccn1 (stereo not given) | 62 to 65 |
| CC1CN(c2ccccn2)N=C1N (stereo not given) | 149 to 151 |
| CCCCCCn1c2c(c(=O)n3nc(-c4ccccc4)cc13)CN(C1CCCCC1)C2=O | 162 to 164 |
| CNC(=NS(C)(=O)=O)NCCCCc1nc(NC(N)=NCC(F)(F)F)sc1C | 165 to 166 |
| CC(=O)NS(=O)(=O)c1cc(C(=O)O)cc([N+](=O)[O-])c1Oc1ccccc1 | 270 to 271 |
| COc1cc(CNC(=O)c2ccccc2)cc(OC)c1OC | 113 to 115 |
| CN1CC2=C(n3cncc3C1)S(=O)C=C2 (stereo not given) | 160 to 163 |
| CC1COc2c(N3CC(N)C(C(F)F)C3)c(F)cc3c(=O)c(C(=O)O)cn1c23 (stereo not given) | 247 to 252 |
| COc1cc2nccc(N3CCN(C(=O)Nc4ccc(Oc5ccccc5)cc4)CC3)c2cc1OC | 204 to 206 |
| CC#CCOc1ccc(S(=O)(=O)N(Cc2cccnc2)C(CSCc2ccccc2)C(=O)NO)cc1 (stereo not given) | 74 to 78 |
| CC(C)C(C#N)c1ccc(OCc2ccccc2)c(OCc2ccccc2)c1 (stereo not given) | 75 to 76 |
| COC(=O)[C@H](Cc1ccc(NC(=O)c2c(Cl)cccc2Cl)cc1)NC(=O)c1ccc(C(=O)Nc2cccc(O)c2)cc1Cl | 230 to 232 |
| O=C(c1c[nH]c2cc(Oc3ccc(F)cc3)ccc12)C1CSC(c2cccnc2)N1 (stereo not given) | 189 to 191 |

| SMILES | melting point [°C] |
| --- | --- |
| Nc1cccc(C2(O)CCOCC2)c1 | 154 to 155 |
| COC(=O)[C@H](Cc1ccccc1)NC(=O)[C@H](Cc1ccccc1)NC(=O)[C@H](CC(N)=O)NC(=O)OC(C)(C)C | 192 to 194 |
| COc1ccc2c(C(=O)O)ccc(OC)c2c1 | 227 to 229 |
| CCCc1nc(N)nc(N)c1N1CCN(c2ccc(C#N)cc2)CC1 | > 300 |
| OCCCCCCC1CCC2C(C=CC3=CCCc4c3n2c2ccncc42)C1 (stereo not given) | 101 to 102 |
| CC(=O)Oc1ccc(-c2ccc3oc(C(=O)O)cc3c2)cc1 | 251 to 254 |
| COc1cc(O)c2c(=O)c(OC)c(-c3ccc(OC(C)=O)c(OC)c3)oc2c1 | 168 to 169 |
| CC1(C)CC(=O)C2=C(C1)NC1=C(C(=O)CC(C)(C)C1)C2c1cc(Br)cc(Br)c1 | 288 to 290 |
| COc1cc(C(=O)C#CCO)cc(OC)c1OC | 104 to 105 |
| CC(C)(Nc1cccc(C(=N)N)c1)C(=O)Nc1ccc(-c2ccccc2S(N)(=O)=O)cc1 | 197 |
| CC(=O)OCC(CCn1cnc2nc(N)ncc21)COC(C)=O | 137 to 139 |
| C=C(CCCCCCCCCCCCCCCC)CC(CO)COCCCCCCCCCCCCCCCC (stereo not given) | 37 to 38 |
| O=C1NC(C(=O)NCCO[N+](=O)[O-])C(c2cccnc2)S1 (stereo not given) | 139 to 140 |
| CCOC(=O)c1cn(C(C)C(OC)OC)c2c(F)c(F)c(F)cc2c1=O (stereo not given) | 125 to 126 |
| CCOC(=O)c1cnc2ccnn2c1O | 81 |
| CCCCCCCCOc1ccc(C(=O)Oc2ccc(-c3ccc(OC(=O)[C@H]4CCCO4)cc3)cc2)cc1 | 73 |
| COC(=O)c1ccc(CC(C=O)c2cc(C(=O)OC)ccc2[N+](=O)[O-])c(OC)c1 (stereo not given) | 117 to 120 |
| Fc1ccc(-c2ncn(CCCCN3CCOCC3)c2-c2ccncc2)cc1 | 103 to 104 |
| COc1ccc([C@H](O)[C@@H](Cc2ccc(C(F)(F)F)cc2)C(=O)O)cc1 (racemic) | 113 to 114 |
| CCN(CC)C(=O)Nc1ccc2oc3c(c2c1)CCCC3 | 179 to 180 |
| CN1CCN(C2=Nc3cc(Br)ccc3-n3ccc4cc(Br)cc2c43)CC1 | 158 to 159 |

Continued, values first:

| melting point [°C] | SMILES |
| --- | --- |
| 255 to 257 | COC(=O)c1ccc2c(c1)Sc1ccccc1NC2=O |
| 91 to 93 | Cc1cc(CCCCCOc2ccc(-c3cnco3)cc2)on1 |
| 160 to 164 | COc1ccc(Nc2ncnc(NCCO)n2)cc1 |
| 242 | O=C(Nc1c(Cl)cncc1Cl)c1ccc(OCC2CC2)c2oc3ccccc3c12 |
| > 300 | COc1nc(-c2ccc(C(=O)O)cc2)cc2cccnc12 |
| 129 to 131 | CCc1cnc(N2CCC(c3ccc(COc4ccc(C#N)c(F)c4)nc3)CC2)nc1 |
| 64 to 66 | O=[N+]([O-])c1ccccc1NCCNc1ccccc1 |
| 267 | Cc1cc(-c2ccc(Cl)c(Cl)c2)nc(-c2ccnc(-c3ccc(S(N)(=O)=O)s3)c2)n1 |
| 128 to 130 | Cc1oc(-c2ccc(C(F)(F)F)cc2)nc1COc1ccc(/C=C/Cn2oc(=O)[nH]c2=O)cc1 |
| 70 to 73 | Fc1cc(F)nc(NCc2ccccc2)n1 |
| 208 to 209 | Cc1cc(C(F)(F)C(F)(F)F)ccc1NC(=O)c1ccc(Cl)c(Cl)c1C(=O)NC(C)C |
| 132 to 136 | Cc1ccc(Cn2c(=O)c3c(N4CCN(C)CC4)cc(Cl)cc3n(Cc3ccccc3)c2=O)o1 |
| 48 to 50 | CN(C)Cc1cccc(OCCCNC(=O)COC(=O)c2ccc(Cl)c(Cl)c2)c1 |
| 126 | CCOC(=O)C1=C(C)NC(COCCN=[N+]=[N-])=C(C(=O)OC)C1c1cccc(Cl)c1Cl (stereo not given) |
| 176 to 179 | COc1cccc(CS(=O)c2nc3cnccc3[nH]2)c1 (stereo not given) |
| 143 to 144 | O=C(O)CCc1cnoc1-c1cc(Cl)cc(Cl)c1 |
| 119 to 120 | COc1ccc(Cc2cc3cccc(-c4cccc(C(=O)NCCN5CCCC5)c4)c3o2)cc1OC |
| 112 to 115 | Cc1ccc(CC(CNC(=O)C(C)c2ccc(NS(C)(=O)=O)cc2)COC(=O)C(C)(C)C)cc1C (stereo not given) |
| 198 to 201 | Cc1ccnc2c1C(=O)c1ccccc1C2=O |
| 115 to 116 | COc1ccc(CCCC(C)=O)cc1S(N)(=O)=O |
| 94 to 96 | CCOC(=O)NC(=NCCN(Cc1ccc(Cl)cc1)c1ccccn1)NCCCc1c[nH]cn1 |
| 144 to 145 | CC(C)(C)c1cc(C(=O)CCCCOc2ccc(C(=O)C(=O)O)cc2)cc(C(C)(C)C)c1O |
| 133 to 134 | CS(=O)c1ccc(C2=C(c3cc(F)cc(F)c3)C(=O)C(C)(C)O2)cc1 (stereo not given) |
| 112 to 115 | Cc1ccc(Cc2cnc(NCCNc3ncc(Cl)cc3C)[nH]c2=O)cn1 |
| 151 to 152 | COc1cc(OC)cc(-c2oc3ncnc(NC4CCCCCC4)c3c2-c2ccccc2)c1 |
| 109 to 110 | COc1cc(Cl)cnc1OCC#Cc1ccc(Cl)cc1 |
| 94 | O=Cc1cccnc1Nc1ccccc1F |
| 149 to 150 | COc1ncc(Br)cc1C(O)C=Cc1ccc(Cl)c(Cl)c1 (stereo not given) |

From a melting point compilation (Tetko et al.; mined from patent text by program, amines drawn as free bases though some values may be those of a salt)
